US20090143279A1 (priority 2007, published 2009)
Where “and” joins values, the source holds several entries; their conditions need not be identical. Equal values may be shown once. Where a name gives a salt, the structure may show the parent alone. Where a SMILES comes first, the peptide text is derived from it.

What follows are molecules tested on cytochrome c. Conditions: not given.
Assay type: cell-based, mouse

SMILES	cyt c (composite Z-score)	cyt c	cyt c (composite Z-score vs DMSO)	cyt c (composite Z-score vs DMSO mock-treated wells)
CN1CCC(=C2c3ccccc3C=Cc3ccccc32)CC1 [cyproheptadine]	0.064	–	–	–
NC[C@@H]1CC[C@@H](N)[C@@H](O[C@H]2[C@H](O)[C@@H](O[C@H]3O[C@H](CO)[C@@H](O)[C@H](N)[C@H]3O)[C@H](N)C[C@@H]2N)O1 [dibekacin]	–	0.464	–	–
COc1c(Cl)ccc(Cl)c1C(=O)O [dicamba]	–	0.278	–	–
Cc1onc(-c2c(Cl)cccc2Cl)c1C(=O)N[C@@H]1C(=O)N2[C@@H]1SC(C)(C)[C@@H]2C(=O)O [dicloxacillin sodium salt]	–	0.836	–	–
COc1ccc([C@@H]2Sc3ccccc3N(CCN(C)C)C(=O)[C@@H]2OC(C)=O)cc1 [diltiazem]	–	0.385	−0.201	–
CN(C)CCCSC(=N)N [dimaprit]	−0.184	–	–	–
CNC(=O)CSP(=S)(OC)OC [dimethoate]	–	0.837	–	–
Cc1c(C(N)=O)cc([N+](=O)[O-])cc1[N+](=O)[O-] [dinitolmide]	–	–	0.218	–
CN1CCC(OC(c2ccccc2)c2ccccc2)CC1 [diphenylpyraline]	–	0.321 and 0.558	–	–
O=c1[nH]c2ccccc2n1CCCN1CCC(n2c(=O)[nH]c3cc(Cl)ccc32)CC1 [domperidone]	–	0.276	–	–
CCN[C@H]1C[C@H](C)S(=O)(=O)c2sc(S(N)(=O)=O)cc21 [dorzolamide]	–	–	−0.076	–
CN(C)CCC=C1c2ccccc2COc2ccccc21 [doxepin]	–	1.151	−0.095	–
O=C(CCCN1CC=C(n2c(=O)[nH]c3ccccc32)CC1)c1ccc(F)cc1 [droperidol]	–	–	0.270 and 0.161	–
CCCSP(=O)(OCC)SCCC [ethoprop]	–	0.271	–	–
O=C(OCCOCCO)c1ccccc1Nc1cccc(C(F)(F)F)c1 [etofenamate]	–	−0.030	–	–
CC(C)(C(=O)O)c1ccc(C(O)CCCN2CCC(C(O)(c3ccccc3)c3ccccc3)CC2)cc1 (centres unmarked) [fexofenadine]	–	−0.751	–	–
OC(Cn1cncn1)(Cn1cncn1)c1ccc(F)cc1F [fluconazole]	–	–	0.741	–
CC1(C)O[C@@H]2C[C@H]3[C@@H]4C[C@H](F)C5=CC(=O)C=C[C@]5(C)[C@H]4[C@@H](O)C[C@]3(C)[C@]2(C(=O)CO)O1 [flunisolide]	–	0.715	−0.257	–
OCCN1CCN(CCCN2c3ccccc3Sc3ccc(C(F)(F)F)cc32)CC1 [fluphenazine]	–	–	–	−0.074
COCCCC/C(=N\OCCN)c1ccc(C(F)(F)F)cc1 [fluvoxamine]	–	0.483	–	–
NS(=O)(=O)c1cc(C(=O)O)c(NCc2ccco2)cc1Cl [furosemide]	–	–	–	0.234 and 0.342
COc1ccc(-c2ccc(=N)n(CCCC(=O)O)n2)cc1 [gabazine]	–	−0.094	–	–
COc1ccc2c3c1O[C@H]1C[C@@H](O)C=C[C@@]31CCN(C)C2 [galanthamine]	–	−1.112	–	–
O=c1c(-c2ccc(O)cc2)coc2cc(O)cc(O)c12 [genistein]	–	–	0.295	–

SMILES	cyt c (composite Z-score)	cyt c	cyt c (composite Z-score vs DMSO)	cyt c (composite Z-score vs DMSO mock-treated wells)
O=C(O)c1cc(O)ccc1O [gentisic acid]	–	–	–	0.210
Cc1cnc(C(=O)NCCc2ccc(S(=O)(=O)NC(=O)NC3CCCCC3)cc2)cn1 [glipizide]	–	–	0.287	–
N[C@@H](CCC(=O)N[C@@H](CS)C(=O)NCC(=O)O)C(=O)O [glutathione]	–	–	−0.913	–
C[N+]1(C)CCC(OC(=O)C(O)(c2ccccc2)C2CCCC2)C1 (centres unmarked) [glycopyrrolate]	–	0.260	–	–
NCCc1c[nH]cn1 [histamine]	–	–	0.016	–
Oc1ccc(O)cc1 [hydroquinone]	–	–	−4.999	–
CN1[C@@H]2CC[C@H]1C[C@@H](OC(=O)[C@H](CO)c1ccccc1)C2 [hyoscyamine]	–	0.319	–	0.235
O=c1[nH]cnc2nc[nH]c12 [hypoxanthine]	–	0.608	–	–
C[C@@H](O)[C@H]1C(=O)N2C(C(=O)O)=C(SCCN=CN)C[C@H]12 [imipenem]	–	−0.330	–	–
O=C(NCC(O)CO)c1c(I)c(C(=O)NCC(O)CO)c(I)c(N(CCO)C(=O)CO)c1I (centres unmarked) [ioversol]	–	0.129	–	–
O=C(/C=C/c1ccc(O)cc1)c1ccc(O)cc1O [isoliquiritigenin]	0.089	–	–	–
COc1c2ccoc2c(OC)c2oc(=O)ccc12 [isopimpinellin]	–	0.230	–	–
O=C1C=CC(=O)c2c(O)cccc21 [juglone]	–	–	0.266	–
CC(=O)N1CCN(c2ccc(OCC3COC(Cn4ccnc4)(c4ccc(Cl)cc4Cl)O3)cc2)CC1 (centres unmarked) [ketoconazole]	–	0.406	–	0.109
O=C1C=C(O)C(=O)c2ccccc21 [lawsone]	–	−0.273	–	–
NCCCC[C@H](N[C@@H](CCc1ccccc1)C(=O)O)C(=O)N1CCC[C@H]1C(=O)O [lisinopril]	–	–	0.265 and 0.412	–
CC1CCC(C(C)C)C(O)C1 (centres unmarked) [menthol]	–	−0.074	–	–
CN1CCCCC1CCN1c2ccccc2Sc2ccc([S+](C)[O-])cc21 (centres unmarked) [mesoridazine]	−0.121	–	–	–
CN(C)C(=N)N=C(N)N [metformin]	–	–	0.597	–
Cn1cc[nH]c1=S [methimazole]	−0.372	–	1.745	–
Cc1cccc(C)c1OCC(C)N (centres unmarked) [mexiletine]	–	1.114	–	–
CN1CCN2c3ccccc3Cc3ccccc3C2C1 (centres unmarked) [mianserin]	–	0.027	–	–
CN1CCN2c3ccccc3Cc3ccccc3C2C1 (centres unmarked) [mianserine]	–	0.473	–	–
CN(C/C=C/c1ccccc1)Cc1cccc2ccccc12 [naftifine]	–	0.645	–	–

Same assay, conditions: composite Z-score vs mock-treated (DMSO) wells; concentration of each compound in μM

SMILES	cyt c
C[C@]12CC[C@H](O)CC1=CC[C@@H]1[C@@H]2CC[C@]2(C)C(=O)CC[C@@H]12 [dehydroepiandrosterone]	−0.634
CN(CCCCCCCCCCN(C)C(=O)Oc1cccc([N+](C)(C)C)c1)C(=O)Oc1cccc([N+](C)(C)C)c1 [demecarium]	−0.211
COc1ccc(-c2cc(C(F)F)nn2-c2ccc(S(N)(=O)=O)cc2)cc1F [deracoxib]	0.350
COc1cc(OC)c2c(=O)c(-c3ccc4c(c3)OCO4)coc2c1 [derrustone]	0.470
CCCCc1cc2ccccc2c(OCCN(C)C)n1 [dimethisoquin]	−1.006
CNCC(O)c1ccc(OC(=O)C(C)(C)C)c(OC(=O)C(C)(C)C)c1 (centres unmarked) [dipivefrin]	−0.180
CC[C@H]1OC(=O)[C@H](C)[C@@H](O[C@H]2C[C@@](C)(OC)[C@@H](O)[C@H](C)O2)[C@H](C)[C@@H](O[C@@H]2O[C@H](C)C[C@H](N(C)C)[C@H]2O)[C@](C)(O)C[C@@H](C)[C@@H]2N[C@@H](COCCOC)O[C@H]([C@H]2C)[C@]1(C)O [dirithromycin]	0.356
CC(CCc1ccc(O)cc1)NCCc1ccc(O)c(O)c1 (centres unmarked) [dobutamine]	−0.289
CCCCCCCC/C=C/CCCCCCCCOP(=O)([O-])OCC[N+](C)(C)C [elaidylphosphocholine]	−0.840
CCc1cccc(CC)c1NC(=O)CN(CC(=O)O)CC(=O)O [etifenin]	0.092
CCOC(=O)C1=C(C)NC(C)=C(C(=O)OC)C1c1cccc(Cl)c1Cl (centres unmarked) [felodipine]	−0.956
Cc1cc(O)c(C=O)c2c1C(=O)Oc1c(COC(=O)/C=C/C(=O)O)c(O)c(C(=O)O)c(C)c1O2 [fumarprotocetraric acid]	0.505
CC(C)=CCC[C@]1(C)C=Cc2c(O)c3c(c(CC=C(C)C)c2O1)O[C@]12C(=C[C@@H]4C[C@H]1C(C)(C)O[C@@]2(C/C=C(/C)C(=O)O)C4=O)C3=O [gambogic acid]	−5.596
CO/N=C1\CN(c2nc3c(cc2F)c(=O)c(C(=O)O)cn3C2CC2)CC1CN (centres unmarked) [gemifloxacin]	0.009
CC(C)=CCC/C(C)=C/COC(=O)C=Cc1ccccc1 [geranyl cinnamate]	−0.107
Cc1ccc(S(=O)(=O)NC(=O)NN2CC3CCCC3C2)cc1 (centres unmarked) [gliclazide]	0.147
CC[C@H]1CN2CC[C@H]1C[C@H]2[C@H](O)c1ccnc2ccc(OC)cc12 [hydroquinine]	0.004
COc1ccc(-c2oc3c(CC=C(C)C)c(O[C@@H]4O[C@H](CO)[C@@H](O)[C@H](O)[C@H]4O)cc(O)c3c(=O)c2O[C@@H]2O[C@@H](C)[C@H](O)[C@@H](O)[C@H]2O)cc1 [icariin]	0.073
CC(=O)N(CC(O)CN(C(C)=O)c1c(I)c(C(=O)NCC(O)CO)c(I)c(C(=O)NCC(O)CO)c1I)c1c(I)c(C(=O)NCC(O)CO)c(I)c(C(=O)NCC(O)CO)c1I (centres unmarked) [iodixanol]	−0.092
COCC(=O)Nc1c(I)c(C(=O)NCC(O)CO)c(I)c(C(=O)N(C)CC(O)CO)c1I (centres unmarked) [iopromide]	0.263
COC(=O)C1=C(C)NC(C)=C(C(=O)OC(C)C)C1c1cccc2nonc12 (centres unmarked) [isradipine]	0.236
CC(C)=CCC[C@@H](C)[C@H]1CC[C@@]2(C)C3=C(CC[C@]12C)[C@@]1(C)CC[C@H](O)C(C)(C)[C@@H]1CC3 [lanosterol]	0.383
NCCCC[C@H](N)C(=O)N[C@@H](Cc1ccccc1)C(=O)N[C@@H](Cc1ccc(O)cc1)C(=O)O [lysylphenylalanyltyrosine] (H-Lys-Phe-Tyr-OH)	0.240
C[C@H]1[C@H](C)CC[C@]2(C(=O)O)CC[C@]3(C)C(=CC[C@@H]4[C@@]5(C)C[C@@H](O)[C@H](O)[C@@](C)(CO)[C@@H]5[C@H](O)C[C@]43C)[C@H]12 [madecassic acid]	0.241
CC(=O)O[C@]1(C(C)=O)CC[C@H]2[C@@H]3C=C(C)C4=CC(=O)CC[C@]4(C)[C@H]3CC[C@@]21C [megestrol acetate]	0.810
Cc1cccc(C)c1NC(=O)C1CCCCN1C (centres unmarked) [mepivacaine]	−0.084
C=N[C@@H](C(=O)N[C@@H]1C(=O)N2[C@@H]1SC(C)(C)[C@@H]2C(=O)O)c1ccccc1 [metampicillin]	0.821

Same assay, conditions: normalized score (composite Z-score vs DMSO mock-treated wells); compound concentration (μM)

SMILES	cyt c
OCCOCCN1CCN(C(c2ccccc2)c2ccc(Cl)cc2)CC1 (centres unmarked) [hydroxyzine]	0.258
Clc1ccc(C(Cn2ccnc2)OCc2c(Cl)cccc2Cl)c(Cl)c1 (centres unmarked) [isoconazole]	−0.572
